In patent US7179800B2 (priority 2002, dated 2007):

Tests used:
Male ICR mice [1] = experiment: Suppression of spontaneous activity (SA) in mice; type: in vivo, mouse; conditions: Mus musculus, iv, mice, i.v.
Protocol: (§1) Male ICR mice (25–32 g), obtained from Harlan (Dublin, Va.), were housed in groups of five. All animals were kept in a temperature-controlled (20–22° C.) environment with a 12-hour light-dark cycle (lights on at 7 a.m.). Separate mice were used for testing each drug dose in the in vivo behavioral procedures. Brain tissue for binding studies was obtained from male Sprague-Dawley rats (150–200 g) purchased from Harlan Laboratories (Dublin, Va.).
(§2) Measurement of spontaneous activity in mice occurred in standard activity chambers interfaced with a Digiscan Animal Activity Monitor (Omnitech Electronics, Inc., Columbus, Ohio). A standard tail-flick apparatus and a digital thermometer (Fisher Scientific, Pittsburgh, Pa.) were used to measure antinociception and rectal temperature, respectively
(§3) Resorcinols were synthesized in our labs (Organix, Inc., Woburn, Mass.) according to the procedure specified below and were suspended in a vehicle of absolute ethanol, Emulphor-620 (Rhone-Poulenc, Inc., Princeton, N.J.), and saline in a ratio of 1:1:18. Drugs were administered to the mice intravenously (i.v.) in the tail vein at a volume of 0.1 ml/10 g.
(§4) Prior to testing in the behavioral procedures, mice were acclimated to the experimental setting (ambient temperature 22–24° C.) overnight. Pre-injection control values were determined for rectal temperature and tail-flick latency (in sec). […] Tail-flick latency was measured at 20 min post-injection. Maximum latency of 10 sec was used. Antinociception was calculated as percent of maximum possible effect {% MPE=[(test−control latency)/(10-control)]×100}. Control latencies typically ranged from 1.5 to 4.0 sec. At 30 min post-injection, rectal temperature was measured This value was expressed as the difference between control temperature (before injection) and temperatures following drug administration (° C.). Different mice (n=5–6 per dose) were tested for each dose of each compound. Each mouse was tested in each of the 3 procedures.
(§5) Based on data obtained from numerous previous studies with cannabinoids, maximal cannabinoid effects in each procedure were estimated as follows: 90% inhibition of spontaneous activity, 100% MPE in the tail flick procedure, and −6° C. change in rectal temperature. ED50's were defined as the dose at which half maximal effect occurred. For drugs that produced one or more cannabinoid effect, ED50's were calculated separately using least-squares linear regression on the linear part of the dose-effect curve for each measure in the mouse tetrad, plotted against log10 transformation of the dose. For the purposes of potency comparison, potencies were expressed as μmol/kg.

Male ICR mice [2] = experiment: Tail-flick antinociception (TF, % MPE) in mice; type: in vivo, mouse; conditions: Mus musculus, iv, mice, i.v.
Protocol: as §1, §2, §3, §4, §5

CB1 receptor = CB1 receptor (Rattus norvegicus, UniProt P20272); experiment: CB1 binding procedure: displacement of [3H]CP 55,940 from rat whole-brain P2 membranes; set-up: whole brain was homogenized and centrifuged; from tissue; host or cells: rat whole brain, P2 membrane fraction; conditions: for Ki: means ± SEM, [3H]CP 55,940, rat brain membranes, read-out: Ki (nM) CB1; for fold decrease in CB1 affinity: relative to the comparator analog
CB1 receptor, sequence (P20272 whole entry): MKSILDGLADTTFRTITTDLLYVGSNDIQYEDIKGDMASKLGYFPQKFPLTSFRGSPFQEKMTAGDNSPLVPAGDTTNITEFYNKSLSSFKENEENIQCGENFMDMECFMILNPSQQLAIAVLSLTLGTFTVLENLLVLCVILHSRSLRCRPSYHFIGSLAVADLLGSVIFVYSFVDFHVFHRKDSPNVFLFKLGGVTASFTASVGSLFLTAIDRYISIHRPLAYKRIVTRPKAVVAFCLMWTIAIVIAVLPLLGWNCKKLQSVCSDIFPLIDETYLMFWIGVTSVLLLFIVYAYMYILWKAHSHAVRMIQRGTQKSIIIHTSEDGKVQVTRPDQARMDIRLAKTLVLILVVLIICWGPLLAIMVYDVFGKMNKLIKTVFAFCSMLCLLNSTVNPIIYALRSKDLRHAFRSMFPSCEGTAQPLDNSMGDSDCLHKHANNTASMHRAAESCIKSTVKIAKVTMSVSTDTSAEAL
Protocol: as §1
The methods used for tissue preparation and binding have been described previously (Compton et al., 1993) and are similar to those described by Devane et al. (1988). All assays, as described briefly below, were performed in triplicate, and the results represent the combined data from three to six individual experiments.
Following decapitation and rapid removal of the brain, whole brain was homogenized and centrifuged. The resulting pellet was termed P1. The supernatant was saved and combined with the two subsequent supernatants obtained from washing of the P1 pellet. The combined supernatant fractions were centrifuged, resulting in the P2 pellet. After further incubation and centrifuging, this pellet was resuspended in assay buffer to a protein concentration of approximately 2 mg/ml. The membrane preparation was quickly frozen in a bath solution of dry ice and 2-methylbutane (Sigma Chemical Co., St. Louis, Mo.), then stored at −80° C. for no more than 2 weeks. Prior to performing a binding assay an aliquot of frozen membrane was rapidly thawed and protein values determined by the method of Bradford (1976).
Binding was initiated by the addition of 150 μg of P2 membrane to test tubes containing 1 nM of [^3H] CP 55,940 (79 Ci/mmol) and a sufficient quantity of buffer to bring the total incubation volume to 1 ml. Nonspecific binding was determined by the addition of 1 μM unlabeled CP 55,940. Following incubation at 30° C. for 1 hr, binding was terminated by addition of ice cold buffer and vacuum filtration through pretreated filters in a 12-well sampling manifold (Millipore, Bedford, Mass.). After washing, filters were placed into plastic scintillation vials (Packard, Downer Grove, Ill.) and shaken. The quantity of radioactivity present was determined by liquid scintillation spectrometry.
In addition, multiple linear regression was used to calculate the overall degree of relationship between CB1 binding affinity and potency in the mouse measures for all active cannabinoids. […] Ki values for CB1 and CB2 binding were obtained from Scatchard displacement analysis as determined via EBDA program of the KELL software package (Biosoft, Milltown, N.J.).

[3] = 95% confidence limits in parentheses, read-out: ED50 SA (suppression of spontaneous activity)
[4] = 95% confidence limits in parentheses, read-out: ED50 TF (antinociceptive effect in tail flick assay)

Structure (SMILES) | ED50 (Male ICR mice [1]; Table 6, read-out: S.A ED50) | ED50 (Male ICR mice [1]; [3]) | ED50 (Male ICR mice [2]; Table 6, read-out: T.F. ED50) | ED50 (Male ICR mice [2]; [4]) | Ki (CB1 receptor) | fold decrease in CB1 affinity (CB1 receptor)
CCCCCCC(C)(C)c1cc(O)c([C@H]2CCCC(C)C2)c(O)c1 (single isomer, unassigned) [O-1826] | 0.915 mg/kg | 2.7 µmol/kg | 0.821 mg/kg | 2.4 µmol/kg | 40 nM | –
CCCCCCC(C)(C)c1cc(O)c(C2CCSC2)c(O)c1 (stereo not drawn) [O-1661, 2-(Tetrahydrothiophen-3-yl)-5-(1′,1′-dimethylheptyl)-re-sorcinol] | 2.65 mg/kg | 24 µmol/kg | 4.39 mg/kg | 14 µmol/kg | 138 ± 4 nM | –
CCCCCCC(C)(C)c1cc(O)c(C2CCCC(C)C2)c(O)c1 (mixture of isomers) [O-1657, 2-(3-Methylcyclohexyl)-5-(1′,1′-dimethylheptyl)-resorcinol] | 0.13 mg/kg | 0.3 µmol/kg | 0.23 mg/kg | 0.6 µmol/kg | 14 nM | –
CCCCCCC(C)(C)c1cc(O)c(C2CCCCC2C)c(O)c1 (stereo not drawn) [O-1658, 2-(2-Methylcyclohexyl)-5-(1′,1′-dimethylheptyl)-resorcinol] | 0.06 mg/kg | 0.2 µmol/kg | 0.09 mg/kg | 0.3 µmol/kg | 16 ± 2 nM | –
CCCCCCC(C)(C)c1cc(O)c(C2CCC(C)CC2)c(O)c1 (stereo not drawn) [O-1659, 2-(4-Methylcyclohexyl)-5-(1′,1′-dimethylheptyl)-resorcinol] | 1.65 mg/kg | 4.8 µmol/kg | 1.35 mg/kg | 3.9 µmol/kg | 45 ± 1 nM | about 5 fold
CCCCCCC(C)(C)c1cc(O)c(C2CCCCC2)c(O)c1 [O-1422, Cyclohexyl-5-(1′,1′-dimethylheptyl)-resorcinol] | 0.379 mg/kg | 0.1 µmol/kg | 0.241 mg/kg | 0.6 µmol/kg | 11 ± 2 nM | –
CCCCCCC(C)(C)c1cc(O)c(C2CCSCC2)c(O)c1 [O-1425] | 5.82 mg/kg | 17 µmol/kg | 5.05 mg/kg | 15 µmol/kg | 153 ± 17 nM | 14 fold
CCCCCCC(C)(C)c1cc(O)c(C2C3CC4CC(C3)CC2C4)c(O)c1 (stereo not drawn) [O-1660, 2-(2-Adamantyl)-5-(1′,1′-di-methylheptyl)-resorcinol] | 1.27 mg/kg | 3.5 µmol/kg | 0.911 mg/kg | 2.4 µmol/kg | 7 ± 1 nM | –
CCCCCCC(C)(C)c1cc(O)c(C2=CCCCC2)c(O)c1 [O-1423] | 3.92 mg/kg | 12 µmol/kg | 2.86 mg/kg | 9 µmol/kg | 97 ± 5 nM | –
CCCC(C)(C)c1cc(O)c(C2CCCC(C)C2)c(O)c1 (stereo not drawn) [O-1890, 2-(3-Methylcyclohexyl)-5-(1′,1′-dimethylbutyl)-resorcinol] | 20 mg/kg | 69 µmol/kg | 14 mg/kg | 48 µmol/kg | 96 ± 4 nM | –
CCCCCCC(C)(C)c1ccc(-c2cc(C)ccc2C(C)C)c(O)c1 [O-1376, 3-1′,1′-Dimethylheptyl-6-(2-isopropyl-5-methylphenyl)phenol] | 2.94 mg/kg | 8.5 µmol/kg | 1.97 mg/kg | 5.7 µmol/kg | 33 ± 4 nM | –
